In US20050203290A1, “Crystalline form of sucralose, and method for producing it” (priority 2003, published 2005):

Experiments:
[1] = accelerated aging test (shelf life of crystalline sucralose); assay type: physicochemical
Experimental: Shelf life of crystalline sucralose is commonly estimated by performing an accelerated aging test. In this test the crystals are maintained in a controlled atmosphere at 50° C. (122° F.), and sampled periodically. Each sample is dissolved in water and the pH of a 10% solution is tracked to determine the elapsed time at which the pH drops by one unit, indicating a slight sucralose decomposition. Crystals made by traditional methods are considered stable when such decomposition is not indicated until at least 3 days in this test. This is considered equivalent to a shelf life under ambient conditions of about 8 years.

[2] = particle size analysis by light scattering (Coulter LS100Q); assay type: physicochemical; conditions: Isopar G isoparaffin fluid as dispersing medium
Experimental: Particle size analysis of the product is performed using a Coulter LS100Q Particle Size Analyzer, available from Coulter Corporation of Miami, Florida. The analyzer operates by light scattering, using Isopar™ G isoparaffin fluid, available from ExxonMobil Chemical of Houston, Tex., as the dispersing medium. The sucralose product crystals have a particle size distribution such that 90 wt. % of the sample has a particle size less than 62 μm, while 10 wt. % has a particle size less than from about 4 μm, with a mean of 30 μm.

Row | Structure (SMILES) | elapsed time until pH drop under accelerated conditions ([1]; 50° C., dried at the preferred temperature, moisture levels typical of old crystals) [days] | stability in accelerated aging test: elapsed time until pH of a 10% solution drops by one unit ([1]; crystals kept at 50° C. (122° F.) in controlled atmosphere, Example product dried at about 60° F., moisture about 0.5 wt. %) | shelf life under typical ambient storage conditions corresponding to the accelerated aging result ([1]; extrapolated from accelerated aging test at 50° C.) | mean particle size [2] [μm] | particle size below which 10 wt. % of the sample lies [2] [μm] | particle size below which 90 wt. % of the sample lies [2]
1 | OC[C@H]1O[C@H](O[C@]2(CCl)O[C@H](CCl)[C@@H](O)[C@@H]2O)[C@H](O)[C@@H](O)[C@H]1Cl [old crystals, 4,1′,6′-trichloro-4,1′,6′-trideoxygalactosucrose, reference compound] | 3 |  |  |  |  | 
2 | OC[C@H]1O[C@H](O[C@]2(CCl)O[C@H](CCl)[C@@H](O)[C@@H]2O)[C@H](O)[C@@H](O)[C@H]1Cl [sucralose product crystals, 4,1′,6′-trichloro-4,1′,6′-trideoxygalactosucrose] |  | at least 3 days | about 8 years | 30 | < 4 | less than 62 μm
